Experimental findings from US4751235A, “Anti-atherosclerotic indolizine derivatives” (Sandoz Pharm. Corp., priority 1986, dated 1988) are described below.

pIC50: −log10 of the molar value. Structures can show the parent of a compound that is named as a salt.

Assay [1] has as its target T1, HMG-CoA reductase (Rattus norvegicus, UniProt P51639).
T1 construct: from tissue; host or cells: microsomes (printed); rat liver by own knowledge of the cited method
T1 sequence (P51639 1-887): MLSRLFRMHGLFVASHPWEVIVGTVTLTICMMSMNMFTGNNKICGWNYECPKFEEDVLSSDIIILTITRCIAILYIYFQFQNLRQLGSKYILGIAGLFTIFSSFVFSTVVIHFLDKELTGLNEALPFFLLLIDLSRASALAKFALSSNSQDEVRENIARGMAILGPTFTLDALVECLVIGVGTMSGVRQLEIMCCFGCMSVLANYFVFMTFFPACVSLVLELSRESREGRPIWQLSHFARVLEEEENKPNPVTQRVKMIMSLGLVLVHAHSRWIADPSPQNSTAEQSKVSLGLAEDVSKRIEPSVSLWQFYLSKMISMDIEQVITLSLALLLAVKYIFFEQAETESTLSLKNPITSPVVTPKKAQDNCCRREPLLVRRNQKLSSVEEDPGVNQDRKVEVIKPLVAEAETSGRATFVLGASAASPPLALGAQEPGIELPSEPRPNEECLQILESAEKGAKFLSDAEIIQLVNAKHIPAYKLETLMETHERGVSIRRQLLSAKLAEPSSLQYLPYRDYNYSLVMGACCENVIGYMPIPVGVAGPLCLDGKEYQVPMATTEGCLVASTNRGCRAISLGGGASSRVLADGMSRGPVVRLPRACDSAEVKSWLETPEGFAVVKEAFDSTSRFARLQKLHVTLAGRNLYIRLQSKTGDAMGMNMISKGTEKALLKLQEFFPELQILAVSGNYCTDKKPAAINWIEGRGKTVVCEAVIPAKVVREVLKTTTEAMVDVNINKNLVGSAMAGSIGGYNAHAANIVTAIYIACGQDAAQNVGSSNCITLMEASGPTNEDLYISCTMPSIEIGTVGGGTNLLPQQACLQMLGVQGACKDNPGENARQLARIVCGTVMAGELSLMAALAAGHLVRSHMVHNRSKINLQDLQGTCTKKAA
As to the kind of experiment: Test A. In Vitro Microsomal Assay of HMG-CoA Reductase Inhibition. In kind it is biochemical. Conditions: read-out: IC50 (concentration producing 50% inhibition of HMG-CoA reductase activity). As for the experimental part: Test A. In Vitro Microsomal Assay of HMG-CoA Reductase Inhibition:
This test is known and is carried out as described on pages 59-60 of application Ser. No. 06/741,903 (filed June 6, 1985) and on page 30 of World (PCT) Published Patent Application No. 84/02131 both of which are hereby incorporated by reference as if set forth herein in their entirety. The concentration of the test substance (compound of Formula I) in the assay system is 0.0005-2,000 μmolar. The obtained IC50 is the concentration of the test substance in the assay system observed or calculated to produce a 50% inhibition of HMG-CoA reductase activity.

The subject of assay [2] is 3 β-hydroxysterol synthesis. In words: Test B. In Vivo Cholesterol Biosynthesis Inhibition Test. Conditions: Rattus norvegicus, rats, oral administration, read-out: ED50 (dose producing 50% inhibition of 3 β-hydroxysterol synthesis). How it is done:
Test B. In Vivo Cholesterol Biosynthesis Inhibition Test: This test is also known and is carried out as described on pages 60-61 of said application Ser. No. 06/741,903 and on page 33 of World (PCT) Published Patent Application No. 84/02131, both of which are hereby incorporated by reference as if set forth herein in their entirety.

On to `CC(C)c1c(/C=C/[C@@H](O)C[C@@H](O)CC(=O)O)c(-c2ccc(F)cc2)n2ccccc12` (relative stereo) [Example 2, 7-[3-(4-fluorophenyl)-1-(1-methylethyl)-2-indolizinyl]-3,5,-dihydroxy-6-heptenoic acid, sodium salt (trans)], for which the pIC50 in assay [1] is 7.96.
With `CC[C@H](C)C(=O)O[C@H]1CCC=C2C=C[C@H](C)[C@H](CC[C@@H]3C[C@@H](O)CC(=O)O3)[C@H]21` [Compactin], the ED50 in assay [2] turned out to be 3.5 mg/kg.
As for `CCOC(=O)C[C@H](O)C[C@H](O)/C=C/c1c(C(C)C)c2ccccn2c1-c1ccc(F)cc1` (relative stereo) [Example 1, 7-[3-(4-fluorophenyl)-1-(1-methylethyl)-2-indolizinyl]-3,5,-dihydroxy-6-heptenoic acid, ethyl ester (trans)], the ED50 in assay [2] stood at 0.05 mg/kg.
For `CC[C@H](C)C(=O)O[C@H]1C[C@@H](C)C=C2C=C[C@H](C)[C@H](CC[C@@H]3C[C@@H](O)CC(=O)O3)[C@H]21` [Mevinolin], in assay [2], the ED50 is 0.41 mg/kg.

Usually ED50 stands for the dose that gives a 50% effect, or the effect in half of the subjects.
